Experiments:
[1] = tested on: greenhouse red spider mite (Tetranychus urticae); assay: Tetranychus test, OP resistant (TETRUR spray treatment); type: in vivo; details: after 6 days
Protocol: Solvents: 78.0 parts by weight of acetone • • 1.5 parts by weight of dimethyl formamide Emulsifier: 0.5 part by weight of alkylaryl polyglycol ether To produce a suitable preparation of active compound, 1 part by weight of active compound is mixed with the stated amounts of solvent and emulsifier, and the concentrate is diluted with emulsifier-containing water to the desired concentration. Discs of bean leaves (Phaseolus vulgaris) which are infested by all stages of the greenhouse red spider mite (Tetranychus urticae) are sprayed with an active compound preparation of the desired concentration. After 6 days, the activity in % is determined. 100% means that all spider mites have been killed; 0% means that none of the spider mites has been killed. The test was carried out and evaluated as described in Example B.7.

[2] = logP by HPLC on reversed-phase columns (C 18), EU Guideline 79/831 Annex V.A8; type: physicochemical; details: ** LC-MS in the neutral range, pH 7.8, 0.001 molar aqueous ammonium bicarbonate and acetonitrile
[3] = tested on: larvae of the mustard beetle (Phaedon cochleariae); assay: Phaedon test (PHAECO spray treatment); type: in vivo; details: after 7 days
Protocol: (§1) Solvents: 78.0 parts by weight of acetone • • 1.5 parts by weight of dimethyl formamide Emulsifier: 0.5 part by weight of alkylaryl polyglycol ether To produce a suitable preparation of active compound, 1 part by weight of active compound is mixed with the stated amounts of solvent and emulsifier, and the concentrate is diluted with emulsifier-containing water to the desired concentration. Discs of Chinese cabbage leaves (Brassica pekinensis) are sprayed with an active compound preparation of the desired concentration and, after drying, populated with larvae of the mustard beetle (Phaedon cochleariae). After 7 days, the activity in % is determined. 100% means that all beetle larvae have been killed; 0% means that none of the beetle larvae have been killed. The test was carried out and evaluated as described in Example B.4.

[4] = tested on: caterpillars of the army worm (Spodoptera frugiperda); assay: Spodoptera frugiperda test (SPODFR spray treatment); type: in vivo; details: after 7 days
Protocol: as §1, with “maize” for “Chinese cabbage”, “(Zea mays)” for “(Brassica pekinensis)”, “caterpillars” for “larvae”, “army worm (Spodoptera frugiperda).” for “mustard beetle (Phaedon cochleariae).”, “caterpillars” for “beetle larvae”, “B.5.” for “B.4.”

Boophilus microplus = Boophilus microplus test (BOOPMI injection); type: in vivo; details: 20 μg/animal, injected into the abdomen, after 7 days
Protocol: Solvent: Dimethyl Sulphoxide To produce a suitable preparation of active compound, 10 mg of active compound are mixed with 0.5 ml of solvent, and the concentrate is diluted with water to the desired concentration. The active compound solution is injected into the abdomen (Boophilus microplus) and the animals are transferred into dishes and stored in a climatized room. The activity is monitored for deposition of fertile eggs. After 7 days, the activity in % is determined. 100% means that none of the ticks has laid fertile eggs.

Ctenocephalides felis = Ctenocephalides felis oral (CTECFE); type: in vivo; details: 100 ppm in citrated cattle blood, after 2 days
Protocol: Solvent: 1 part by weight of dimethyl sulphoxide To produce a suitable preparation of active compound, 10 mg of active compound are mixed with 0.5 ml of dimethyl sulphoxide. One part of the concentrate is diluted with citrated cattle blood, and the desired concentration is prepared. 20 unfed adult fleas (Ctenocephalides felis) are placed into a chamber whose top and bottom ends are closed with gauze. A metal cylinder whose bottom end is closed with parafilm is placed onto the chamber. The cylinder contains the blood/active compound preparation, which can be taken up by the fleas through the parafilm membrane. After 2 days, the kill in % is determined. 100% means that all fleas have been killed; 0% means that none of the fleas have been killed.

Lucilia cuprina larvae = assay: Lucilia cuprina test (LUCICU); type: in vivo; details: 100 ppm, treated horse meat, after 2 days
Protocol: Solvent: Dimethyl Sulphoxide To produce a suitable preparation of active compound, 10 mg of active compound are mixed with 0.5 ml of dimethyl sulphoxide, and the concentrate is diluted with water to the desired concentration. Containers containing horse meat treated with the active compound preparation of the desired concentration are populated with Lucilia cuprina larvae. After 2 days, the kill in % is determined. 100% means that all larvae have been killed; 0% means that none of the larvae have been killed.

adult Musca domestica = assay: Musca domestica test (MUSCDO); type: in vivo; details: treated sponge
Protocol: Solvent: Dimethyl sulphoxide To prepare a suitable preparation of active compound, 10 mg of active component are mixed with 0.5 ml of dimethyl sulphoxide, and the concentrate is diluted with water to the desired concentration. Vessels containing a sponge which had been treated with the active compound preparation of the desired concentration are populated with adult Musca domestica. After the desired period of time, the kill in % is determined. 100% means that all flies have been killed; 0% means that none of the flies have been killed.

[5] = tested on: Boophilus microplus strain Parkhurst (SP-resistant); assay: Boophilus microplus test (DIP); type: in vivo; details: 100 ppm
Protocol: Test animals: adult fed females of the Boophilus microplus strain Parkhurst (SP-resistant)
Solvent: Dimethyl sulphoxide
10 mg of active compound are dissolved in 0.5 ml of dimethyl sulphoxide. To produce a suitable formulation, the active compound solution is diluted with water to the particular desired concentration. This active compound preparation is pipetted into tubes. 8-10 ticks are transferred into a further tube provided with holes. The tube is dipped into the active compound preparation, with all ticks being wetted completely. After the liquid has run off, the ticks are transferred to filter discs in plastic dishes and kept in a climatized room. After the desired period of time, the activity is checked for deposition of fertile eggs. Eggs whose fertility is not visible from the outside are kept in glass tubes in a climatized cupboard under the larvae have hatched. An activity of 100% means that no tick has laid fertile eggs.

Row | Structure (SMILES) | activity (spider mites killed) ([1]; 100 g/ha) | logP [2] | activity (beetle larvae killed) ([3]; 100 g/ha) | activity (caterpillars killed) ([4]; 100 g/ha) | activity (no deposition of fertile eggs) (Boophilus microplus) | kill (Ctenocephalides felis) | kill (Lucilia cuprina larvae) | activity (beetle larvae killed) ([3]; 4 g/ha) | kill (adult Musca domestica; 20 ppm) | activity (caterpillars killed) ([4]; 20 g/ha) | activity (no deposition of fertile eggs) [5] | activity (spider mites killed) ([1]; 20 g/ha) | kill (adult Musca domestica; 100 ppm)
1 | COc1cc(C=Nc2c(-c3cc(Cl)cc(C(F)(F)F)c3)c(C(F)(F)F)nn2-c2ncccn2)ccc1O [Example 1-10] | 100% | 4.05** | 100% | 100% |  |  |  |  |  |  |  |  | 
2 | FC(F)(F)c1cc(Cl)cc(-c2c(C(F)(F)F)nn(-c3ncccn3)c2N=Cc2ccccc2)c1 [Example 1-12] | 100% | 4.92** | 100% | 100% | 100% | 100% | 100% | 100% | 100% | 100% |  |  | 
3 | COc1ccc(C=Nc2c(-c3cc(Cl)cc(C(F)(F)F)c3)c(C(F)(F)F)nn2-c2ncccn2)cc1 [Example 1-17] | 100% | 4.98** | 100% | 100% | 100% | 100% | 100% |  | 100% |  |  |  | 
4 | FC(F)(F)c1nn(-c2ncccn2)c(N=Cc2ccccc2)c1-c1cc(Cl)c2c(c1)OCO2 [Example 1-18] | 90% | 3.97** | 100% | 100% | 100% | 100% | 100% |  | 80% | 67% | 100% | at least 90% | 
5 | COc1ccc(C=Nc2c(-c3cc(Cl)cc(C(F)(F)F)c3)c(C(F)(F)C(F)F)nn2-c2ncccn2)cc1 [Example 1-21] | 90% | 3.69** | 100% | 100% | 100% | 100% | 100% |  |  |  |  |  | 100%
6 | FC(F)C(F)(F)c1nn(-c2ncccn2)c(N=Cc2ccc(Cl)cc2)c1-c1cc(Cl)c2c(c1)OCO2 [Example 1-22] | 90% | 4.34** | 100% | 100% | 100% | 100% | 100% |  |  |  | 100% |  | 
7 | CCOC=Nc1c(-c2cc(Cl)c3c(c2)OCO3)c(C(F)(F)C(F)F)nn1-c1ncccn1 [Example 1-35] | 90% | 3.42** | 100% | 100% | 100% | 100% | 100% |  | 100% |  | 100% |  | 
8 | CC(C)OC=Nc1c(-c2cc(Cl)c3c(c2)OCO3)c(C(F)(F)C(F)F)nn1-c1ncccn1 [Example 1-38] | 100% | 3.66** | 100% | 100% | 100% | 100% | 100% |  | 100% |  | 100% |  | 
9 | FC(F)(F)c1cc(Cl)cc(-c2c(C(F)(F)C(F)(F)F)nn(-c3ncccn3)c2N=Cc2ccc(Cl)cc2)c1 [Example 1-40] | 100% | 5.93** | 100% | 100% | 100% | 100% | 100% |  |  |  |  |  | 100%
10 | COc1ccc(C=Nc2c(-c3cc(Cl)cc(C(F)(F)F)c3)c(C(F)(F)C(F)(F)F)nn2-c2ncccn2)cc1 [Example 1-41] | 100% | 5.4** | 100% | 100% | 100% | 100% | 100% |  |  |  |  |  | 100%
11 | CC(C)OC=Nc1c(-c2cc(Cl)cc(C(F)(F)F)c2)c(C(F)(F)C(F)(F)F)nn1-c1ncccn1 [Example 1-44] | 100% | 5.31** | 100% | 100% |  |  |  |  |  |  |  |  | 
12 | COc1nccnc1-n1nc(C(F)(F)F)c(-c2cc(Cl)c3c(c2)OCO3)c1N=COC(C)C [Example 2-19] | 100% | 4.26** | 100% | 100% | 100% | 90% | 100% |  | 100% |  | 80% |  | 
13 | COc1nccnc1-n1nc(C(F)(F)C(F)F)c(-c2cc(Cl)cc(C(F)(F)F)c2)c1N=COC(C)C [Example 2-20] | 100% | 5.1** |  |  | 100% |  | 100% |  |  |  |  |  | 80%
14 | FC(F)(F)c1nn(-c2ncccn2)c(NCc2ccccc2)c1-c1cc(Cl)c2c(c1)OCO2 [compound (XXI), reference compound] |  |  |  |  |  |  |  |  |  | 0% |  | 0% | 
15 | COc1ccc(CNc2c(-c3cc(Cl)cc(C(F)(F)F)c3)c(C(F)(F)F)nn2-c2ncccn2)cc1 [compound (XXII), reference compound] | no activity |  | no activity | no activity |  |  |  |  |  |  |  |  | 
